Laboratory results as given in patent publication US20220324815A1, “2-PHENOXY-PYRIMIDINE DERIVATIVES AS HERBICIDAL COMPOUNDS” (SYNGENTA CROP PROTECTION AG, priority 2019, published 2022).

Tests used:
Assay type in all cases: in vivo
Conditions in all cases: 250 g/ha unless otherwise stated, evaluated after 13 days, five-point scale
Setaria faberi (SETFA) [1] = test: Test 1 glasshouse herbicide test, pre-emergence application (Table B2)
Procedure, shortened: (§1)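 Pots sown in standard soil; sprayed 1 day (pre-emergence) or 8 days (post-emergence) after sowing at 250 g/ha unless stated, in acetone/water (50:50) with 0.5% Tween 20. Glasshouse 24/16 °C, 14 h light, 65% humidity; damage scored at 13 days on a 1–5 scale (5=81–100%, 1=0–20%).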

[2] = tested on: Ipomoea hederacea (IPOHE); test: as above
Procedure, shortened: as §1

[3] = tested on: Amaranthus retoflexus (AMARE); test: as above
Procedure, shortened: as §1

Lolium perenne (LOLPE) [4] = test: as above
Procedure, shortened: as §1

Solanum nigrum (SOLNI) [5] = test: as above
Procedure, shortened: as §1

[6] = tested on: Echinochloa crus-galli (ECHCG); test: as above
Procedure, shortened: as §1

Setaria faberi (SETFA) [7] = test: Test 1 glasshouse herbicide test, post-emergence application (Table B1)
Procedure, shortened: as §1

[8] = tested on: Ipomoea hederacea (IPOHE); test: as above
Procedure, shortened: as §1

[9] = tested on: Amaranthus retoflexus (AMARE); test: as above
Procedure, shortened: as §1

Lolium perenne (LOLPE) [10] = test: as above
Procedure, shortened: as §1

Solanum nigrum (SOLNI) [11] = test: as above
Procedure, shortened: as §1

[12] = tested on: Echinochloa crus-galli (ECHCG); test: as above
Procedure, shortened: as §1

Row | Structure (SMILES) | % phytotoxicity SETFA, pre-emergence application (Setaria faberi (SETFA) [1]) | % phytotoxicity IPOHE, pre-emergence application [2] | % phytotoxicity AMARE, pre-emergence application [3] | % phytotoxicity LOLPE, pre-emergence application (Lolium perenne (LOLPE) [4]) | % phytotoxicity SOLNI, pre-emergence application (Solanum nigrum (SOLNI) [5]) | % phytotoxicity ECHCG, pre-emergence application [6] | % phytotoxicity SETFA, post-emergence application (Setaria faberi (SETFA) [7]) | % phytotoxicity IPOHE, post-emergence application [8] | % phytotoxicity AMARE, post-emergence application [9] | % phytotoxicity LOLPE, post-emergence application (Lolium perenne (LOLPE) [10]) | % phytotoxicity SOLNI, post-emergence application (Solanum nigrum (SOLNI) [11]) | % phytotoxicity ECHCG, post-emergence application [12]
1 | [O-][S+](CCCC(F)(F)F)c1ccccc1Oc1ncc(Cl)cn1 (stereo not drawn) [Compound A5] | 5 (5=81 to 100%) | 5 (5=81 to 100%) | 5 (5=81 to 100%) | 5 (5=81 to 100%) | 5 (5=81 to 100%) | 5 (5=81 to 100%) | 5 (5=81 to 100%) | 4 (4=61 to 80%) | 5 (5=81 to 100%) | 5 (5=81 to 100%) | 5 (5=81 to 100%) | 5 (5=81 to 100%)
2 | N#Cc1cccc(Oc2ncc(Cl)cn2)c1S(=O)(=O)CCC(F)(F)F [Compound A15] | 5 (5=81 to 100%) | 5 (5=81 to 100%) | 5 (5=81 to 100%) | 5 (5=81 to 100%) | 5 (5=81 to 100%) | 5 (5=81 to 100%) | 5 (5=81 to 100%) | 5 (5=81 to 100%) | 5 (5=81 to 100%) | 4 (4=61 to 80%) | 5 (5=81 to 100%) | 5 (5=81 to 100%)
3 | N#Cc1cccc(Oc2ncc(Cl)cn2)c1SCCCC(F)(F)F [Compound A28, 3-(5-chloropyrimidin-2-yl)oxy-2-(4,4,4-trifluorobutylsulfanyl)benzonitrile] | 5 (5=81 to 100%) | 5 (5=81 to 100%) | 5 (5=81 to 100%) | 5 (5=81 to 100%) | 5 (5=81 to 100%) | 5 (5=81 to 100%) | 5 (5=81 to 100%) | 5 (5=81 to 100%) | 5 (5=81 to 100%) | 5 (5=81 to 100%) | 5 (5=81 to 100%) | 5 (5=81 to 100%)
4 | O=S(=O)(CCCC(F)(F)F)c1c(Cl)cccc1Oc1ncc(Cl)cn1 [Compound A24] | 5 (5=81 to 100%) | 5 (5=81 to 100%) | 5 (5=81 to 100%) | 4 (4=61 to 80%) | 5 (5=81 to 100%) | 5 (5=81 to 100%) | 5 (5=81 to 100%) | 5 (5=81 to 100%) | 5 (5=81 to 100%) | 5 (5=81 to 100%) | 5 (5=81 to 100%) | 5 (5=81 to 100%)
5 | N#Cc1cccc(Oc2ncc(Cl)cn2)c1S(=O)(=O)CCCC(F)(F)F [Compound A30, 3-(5-chloropyrimidin-2-yl)oxy-2-(4,4,4-trifluorobutylsulfonyl)benzonitrile] | 5 (5=81 to 100%) | 5 (5=81 to 100%) | 5 (5=81 to 100%) | 5 (5=81 to 100%) | 5 (5=81 to 100%) | 5 (5=81 to 100%) | 5 (5=81 to 100%) | 4 (4=61 to 80%) | 5 (5=81 to 100%) | 5 (5=81 to 100%) | 5 (5=81 to 100%) | 5 (5=81 to 100%)
6 | [O-][S+](CCC(F)(F)F)c1c(F)cccc1Oc1ncc(Cl)cn1 (stereo not drawn) [Compound A8] | 4 (4=61 to 80%) | 2 (2=21 to 40%) | 5 (5=81 to 100%) | 2 (2=21 to 40%) | 4 (4=61 to 80%) | 2 (2=21 to 40%) | 3 (3=41 to 60%) | 2 (2=21 to 40%) | 5 (5=81 to 100%) | 1 (1=0 to 20%) | 4 (4=61 to 80%) | 1 (1=0 to 20%)
7 | N#Cc1cccc(Oc2ncc(Cl)cn2)c1SCCC(F)(F)F [Compound A13] | 5 (5=81 to 100%) | 4 (4=61 to 80%) | 5 (5=81 to 100%) | 5 (5=81 to 100%) | 5 (5=81 to 100%) | 5 (5=81 to 100%) | 5 (5=81 to 100%) | 4 (4=61 to 80%) | 5 (5=81 to 100%) | 5 (5=81 to 100%) | 5 (5=81 to 100%) | 5 (5=81 to 100%)
8 | [O-][S+](CCCC(F)(F)F)c1c(Cl)cccc1Oc1ncc(Cl)cn1 (stereo not drawn) [Compound A26] | 5 (5=81 to 100%) | 5 (5=81 to 100%) | 5 (5=81 to 100%) | 5 (5=81 to 100%) | 5 (5=81 to 100%) | 5 (5=81 to 100%) | 5 (5=81 to 100%) | 5 (5=81 to 100%) | 5 (5=81 to 100%) | 5 (5=81 to 100%) | 5 (5=81 to 100%) | 5 (5=81 to 100%)
9 | FC(F)(F)CCCSc1c(Cl)cccc1Oc1ncc(Cl)cn1 [Compound A25] | 5 (5=81 to 100%) | 1 (1=0 to 20%) | 5 (5=81 to 100%) | 5 (5=81 to 100%) | 5 (5=81 to 100%) | 5 (5=81 to 100%) | 5 (5=81 to 100%) | 3 (3=41 to 60%) | 5 (5=81 to 100%) | 5 (5=81 to 100%) | 5 (5=81 to 100%) | 5 (5=81 to 100%)
10 | O=S(=O)(CCC(F)(F)F)c1ccccc1Oc1ncc(Cl)cn1 [Compound A3] | 5 (5=81 to 100%) | 3 (3=41 to 60%) | 5 (5=81 to 100%) | 4 (4=61 to 80%) | 4 (4=61 to 80%) | 5 (5=81 to 100%) | 4 (4=61 to 80%) | 3 (3=41 to 60%) | 5 (5=81 to 100%) | 4 (4=61 to 80%) | 5 (5=81 to 100%) | 4 (4=61 to 80%)
11 | FC(F)(F)CCCSc1ccccc1Oc1ncc(Cl)cn1 [Compound A4, 5-chloro-2-[2-(4,4,4-trifluorobutylsulfanyl)phenoxy] pyrimidine] | 5 (5=81 to 100%) | 3 (3=41 to 60%) | 5 (5=81 to 100%) | 4 (4=61 to 80%) | 4 (4=61 to 80%) | 5 (5=81 to 100%) | 5 (5=81 to 100%) | 4 (4=61 to 80%) | 5 (5=81 to 100%) | 4 (4=61 to 80%) | 5 (5=81 to 100%) | 4 (4=61 to 80%)
